Results: patent publication US20230123334A1, “AMINO LIPID COMPOUND, PREPARATION METHOD THEREFOR, AND APPLICATION THEREOF” (SHENZHEN SHENXIN BIOTECHNOLOGY CO., LTD., priority 2020, published 2023)

System: HEK293 cells
Experiment: Preliminary screening as DNA vectors, GFP transfection of HEK293 cells
Assay type: cell-based
Settings: amino lipid/DOPE liposome with 75 ng plasmid DNA (psin-EGFP-IRES-Puro); number of GFP-expressing cells divided by total nuclei (Hoechst)
Experimental: Cell line: HEK293 cells (ATCC CRL-1573™)
Medium: DMEM supplemented with 10% fetal bovine serum (Invitrogen)
Mode of screening: cell transfection on 96-well plates
Detection (readout): percentage of the number of GFP fluorescent cells relative to the total number of cells (the total number of cells was measured using nucleus dye Hoechst—see FIG. 2). Lipofectamine2000 (Invitrogen) was used as positive control, according to the manufacturer's instructions.
Method: an 8-channel pipette was used for sample addition. The contents shown were for a single well of a 96-well flat plate.
1. The compound (0.01 mmol) prepared in Example 1 was dissolved in 1 mL of anhydrous ethanol. After ultrasonically dissolved, 10 μL of the resultant amino lipid solution in ethanol was taken and mixed with 5 μL of DOPE solution in ethanol (0.01 m), and then to the obtained mixture was added 35 μL of 0.2M sodium acetate buffer (pH 5.6), and 50 μL of liposome solution was prepared by vortex at a constant rotating speed for 30 s. 4 μL was taken from the 50 μL liposome solution and added to 46 μL of 0.02M sodium acetate buffer (pH 5.6), and the final liposome solution was formed by vortex at a constant rotating speed for 30 s. 5 μL was taken from the final liposome solution and mixed with 75 ng plasmid DNA (psin-EGFP-IRES-Puro, Clontech) dissolved in 5 μL of 0.02 M sodium acetate buffer, and was allowed to stay at room temperature for 30 min to form a lipid/DNA transfection complex.
2. 10 μL of the lipid/DNA transfection complex was incubated at room temperature for 30 min, followed by addition of 90 μL of fresh resuspended cells (3-5×10^4 cells) and mixing with a pipette. 100 μL of cells+lipid/DNA complex was transferred to separate wells of a 96-well culture plate immediately, and placed in an incubator containing 5% CO2 at 37° C.
3. Hoechst33258 (Invitrogen) was added at a final concentration of 0.2 μg/mL to the cells 20 to 24 hours after initial cell transfection, and cultured in darkness at 37° C. for 15 min. Afterwards, the cells were washed once with a PBS solution, and then added with medium for culture for 20 to 24 h.
4. The cells were placed in a high-throughput confocal microscope (Molecular Devices ImageXpress), and four visual fields of the image of the cells were captured for each well, and images at three laser wavelengths were captured for each sample: bright field images of cells (FIG. 2(a) and FIG. 2(b)), Hoechst-staining images showing total nuclei (FIG. 2(c) and FIG. 2(d)) and GFP images showing success in transfection with the plasmid DNA and the expression of GFP (FIG. 2(e) and FIG. 2(f)). MetaXpress software was used to separately count the cells in the Hoechst-staining images and GFP images, and then the number of cells expressing GFP was divided by the total number of nuclei to give the absolute cell transfection efficiency. The absolute transfection efficiency was calculated as follows: […]

Compared with `CCCCCCCCCCCCNc1nc(NCCCN2CCN(C)CC2)nc(SCCCCCC)n1` [S6N12 D9], `CCCCCCCCCCCCCNc1nc(NCCCN2CCN(C)CC2)nc(SCCCCCC)n1` [S6N13 D9] is lower in “Absolute DNA transfection efficiency in HEK293 cells” value (“Absolute DNA transfection efficiency” for short): 38.8% for the first, 38.3% for the second.

Compared with `CCCCCCCCCCCCNc1nc(NCC2CCN(C)CC2)nc(SCCCCCC)n1` [S6N12 D10], `CCCCCCCCCCCCCNc1nc(NCC2CCN(C)CC2)nc(SCCCCCC)n1` [S6N13 D10] is higher in “Absolute DNA transfection efficiency” value: 21.3% for the first, 51.6% for the second.

Going from `CCCCCCCCCCCCCNc1nc(NCCN(C)C)nc(SCCCCCC)n1` [S6N13 D1] to `CCCCCCCCCCCCCCCNc1nc(NCCN(C)C)nc(SCCCCCC)n1` [S6N15 D1], the “Absolute DNA transfection efficiency” value falls from 6.5% to 5.8%.

Going from `CCCCCCCCCCCCCNc1nc(NCCN2CCOCC2)nc(SCCCCCC)n1` [S6N13 D2] to `CCCCCCCCCCCCCCCNc1nc(NCCN2CCOCC2)nc(SCCCCCC)n1` [S6N15 D2], the “Absolute DNA transfection efficiency” value rises from 1.9% to 2.0%.

First: CCCCCCCCCCCCCNc1nc(NCCN2CCCC2)nc(SCCCCCC)n1 [S6N13 D3]
Second: CCCCCCCCCCCCCNc1nc(NCCN2CCCCC2)nc(SCCCCCC)n1 [S6N13 D4]
The “Absolute DNA transfection efficiency” value of the first is higher: 9.9% for the first, 2.1% for the second.

Going from `CCCCCCCCCCCCCNc1nc(NCCN2CCN(C)CC2)nc(SCCCCCC)n1` [S6N13 D5] to `CCCCCCCCCCCCCCCNc1nc(NCCN2CCN(C)CC2)nc(SCCCCCC)n1` [S6N15 D5], the “Absolute DNA transfection efficiency” value falls from 24.1% to 22.3%.

Compared with `CCCCCCCCCCCCCNc1nc(NCCCN(C)C)nc(SCCCCCC)n1` [S6N13 D6], `CCCCCCCCCCCCCCCNc1nc(NCCCN(C)C)nc(SCCCCCC)n1` [S6N15 D6] is higher in “Absolute DNA transfection efficiency” value: 12.9% for the first, 25.9% for the second.

Going from `CCCCCCCCCCCCCNc1nc(NCCN(CC)CC)nc(SCCCCCC)n1` [S6N13 D7] to `CCCCCCCCCCCCCCCNc1nc(NCCN(CC)CC)nc(SCCCCCC)n1` [S6N15 D7], the “Absolute DNA transfection efficiency” value falls from 2.0% to 1.2%.

Compared with `CCCCCCCCCCCCCNc1nc(NCCCN2CCOCC2)nc(SCCCCCC)n1` [S6N13 D8], `CCCCCCCCCCCCCCCNc1nc(NCCCN2CCOCC2)nc(SCCCCCC)n1` [S6N15 D8] is lower in “Absolute DNA transfection efficiency” value: 4.9% for the first, 3.3% for the second.

Going from `CCCCCCCCCCCCCCCNc1nc(NCCN2CCCC2)nc(SCCCCCC)n1` [S6N15 D3] to `CCCCCCCCCCCCCCCNc1nc(NCCN2CCCCC2)nc(SCCCCCC)n1` [S6N15 D4], the “Absolute DNA transfection efficiency” value falls from 15.9% to 1.7%.

Compared with `CCCCCCCCCCCCCCCNc1nc(NCCCN2CCN(C)CC2)nc(SCCCCCC)n1` [S6N15 D9], `CCCCCCCCCCCCCCCCNc1nc(NCCCN2CCN(C)CC2)nc(SCCCCCC)n1` [S6N16 D9] is lower in “Absolute DNA transfection efficiency” value: 28.4% for the first, 20.6% for the second.

Compared with `CCCCCCCCCCCCCCCNc1nc(NCC2CCN(C)CC2)nc(SCCCCCC)n1` [S6N15 D10], `CCCCCCCCCCCCCCCCNc1nc(NCC2CCN(C)CC2)nc(SCCCCCC)n1` [S6N16 D10] is lower in “Absolute DNA transfection efficiency” value: 31.1% for the first, 19.7% for the second.

Going from `CCCCCCCCCCCCCCCCNc1nc(NCCN(C)C)nc(SCCCCCC)n1` [S6N16 D1] to `CCCCCCCCCCCCCCCCCCNc1nc(NCCN(C)C)nc(SCCCCCC)n1` [S6N18 D1], the “Absolute DNA transfection efficiency” value rises from 6.6% to 21.0%.

Going from `CCCCCCCCCCCCCCCCNc1nc(NCCN2CCOCC2)nc(SCCCCCC)n1` [S6N16 D2] to `CCCCCCCCCCCCCCCCCCNc1nc(NCCN2CCOCC2)nc(SCCCCCC)n1` [S6N18 D2], the “Absolute DNA transfection efficiency” value rises from 1.4% to 2.5%.

First: CCCCCCCCCCCCCCCCNc1nc(NCCN2CCCC2)nc(SCCCCCC)n1 [S6N16 D3]
Second: CCCCCCCCCCCCCCCCNc1nc(NCCN2CCCCC2)nc(SCCCCCC)n1 [S6N16 D4]
The “Absolute DNA transfection efficiency” value of the first is higher: 19.8% for the first, 2.4% for the second.

First: CCCCCCCCCCCCCCCCNc1nc(NCCN2CCN(C)CC2)nc(SCCCCCC)n1 [S6N16 D5]
Second: CCCCCCCCCCCCCCCCCCNc1nc(NCCN2CCN(C)CC2)nc(SCCCCCC)n1 [S6N18 D5]
The “Absolute DNA transfection efficiency” value of the first is higher: 19.6% for the first, 15.4% for the second.

Compared with `CCCCCCCCCCCCCCCCNc1nc(NCCCN(C)C)nc(SCCCCCC)n1` [S6N16 D6], `CCCCCCCCCCCCCCCCCCNc1nc(NCCCN(C)C)nc(SCCCCCC)n1` [S6N18 D6] is lower in “Absolute DNA transfection efficiency” value: 22.8% for the first, 21.8% for the second.

First: CCCCCCCCCCCCCCCCNc1nc(NCCN(CC)CC)nc(SCCCCCC)n1 [S6N16 D7]
Second: CCCCCCCCCCCCCCCCCCNc1nc(NCCN(CC)CC)nc(SCCCCCC)n1 [S6N18 D7]
The “Absolute DNA transfection efficiency” value of the first is lower: 2.6% for the first, 5.2% for the second.

First: CCCCCCCCCCCCCCCCNc1nc(NCCCN2CCOCC2)nc(SCCCCCC)n1 [S6N16 D8]
Second: CCCCCCCCCCCCCCCCCCNc1nc(NCCCN2CCOCC2)nc(SCCCCCC)n1 [S6N18 D8]
The “Absolute DNA transfection efficiency” value of the first is lower: 4.2% for the first, 8.1% for the second.

Compared with `CCCCCCCCCCCCCCCCCCNc1nc(NCCN2CCCC2)nc(SCCCCCC)n1` [S6N18 D3], `CCCCCCCCCCCCCCCCCCNc1nc(NCCN2CCCCC2)nc(SCCCCCC)n1` [S6N18 D4] is lower in “Absolute DNA transfection efficiency” value: 21.9% for the first, 3.5% for the second.

Compared with `CCCCCCCCCCCCCCCCCCNc1nc(NCCCN2CCN(C)CC2)nc(SCCCCCC)n1` [S6N18 D9], `CCCCCCCCCCCCCCCCCCNc1nc(NCC2CCN(C)CC2)nc(SCCCCCC)n1` [S6N18 D10] is lower in “Absolute DNA transfection efficiency” value: 14.1% for the first, 13.0% for the second.

Going from `CCCCCCSc1nc(NCCN(C)C)nc(SCCCCCC)n1` [S6S6 D1] to `CCCCCCCSc1nc(NCCN(C)C)nc(SCCCCCC)n1` [S6S7 D1], the “Absolute DNA transfection efficiency” value falls from 1.1% to 0.5%.

Compared with `CCCCCCSc1nc(NCCN2CCOCC2)nc(SCCCCCC)n1` [S6S6 D2], `CCCCCCCSc1nc(NCCN2CCOCC2)nc(SCCCCCC)n1` [S6S7 D2] is higher in “Absolute DNA transfection efficiency” value: 0.4% for the first, 1.2% for the second.

Compared with `CCCCCCSc1nc(NCCN2CCCC2)nc(SCCCCCC)n1` [S6S6 D3], `CCCCCCSc1nc(NCCN2CCCCC2)nc(SCCCCCC)n1` [S6S6 D4] is lower in “Absolute DNA transfection efficiency” value: 4.4% for the first, 1.4% for the second.

Going from `CCCCCCSc1nc(NCCN2CCN(C)CC2)nc(SCCCCCC)n1` [S6S6 D5] to `CCCCCCCSc1nc(NCCN2CCN(C)CC2)nc(SCCCCCC)n1` [S6S7 D5], the “Absolute DNA transfection efficiency” value falls from 9.1% to 5.7%.

First: CCCCCCSc1nc(NCCCN(C)C)nc(SCCCCCC)n1 [S6S6 D6]
Second: CCCCCCCSc1nc(NCCCN(C)C)nc(SCCCCCC)n1 [S6S7 D6]
The “Absolute DNA transfection efficiency” value of the first is higher: 12.5% for the first, 6.9% for the second.

Compared with `CCCCCCSc1nc(NCCN(CC)CC)nc(SCCCCCC)n1` [S6S6 D7], `CCCCCCCSc1nc(NCCN(CC)CC)nc(SCCCCCC)n1` [S6S7 D7] is lower in “Absolute DNA transfection efficiency” value: 23.0% for the first, 22.2% for the second.

Compared with `CCCCCCSc1nc(NCCCN2CCOCC2)nc(SCCCCCC)n1` [S6S6 D8], `CCCCCCCSc1nc(NCCCN2CCOCC2)nc(SCCCCCC)n1` [S6S7 D8] is lower in “Absolute DNA transfection efficiency” value: 0.8% for the first, 0.0% for the second.

First: CCCCCCSc1nc(NCCCN2CCN(C)CC2)nc(SCCCCCC)n1 [S6S6 D9]
Second: CCCCCCCSc1nc(NCCCN2CCN(C)CC2)nc(SCCCCCC)n1 [S6S7 D9]
The “Absolute DNA transfection efficiency” value of the first is higher: 7.6% for the first, 7.5% for the second.

`CCCCCCSc1nc(NCC2CCN(C)CC2)nc(SCCCCCC)n1` [S6S6 D10] and `CCCCCCCSc1nc(NCC2CCN(C)CC2)nc(SCCCCCC)n1` [S6S7 D10] are the same in “Absolute DNA transfection efficiency” value: 21.6% for the first, 21.6% for the second.

Compared with `CCCCCCCSc1nc(NCCN2CCCC2)nc(SCCCCCC)n1` [S6S7 D3], `CCCCCCCSc1nc(NCCN2CCCCC2)nc(SCCCCCC)n1` [S6S7 D4] is higher in “Absolute DNA transfection efficiency” value: 1.4% for the first, 2.0% for the second.

Going from `CCCCCCCCSc1nc(NCCN(C)C)nc(SCCCCCC)n1` [S6S8 D1] to `CCCCCCCCSc1nc(NCCN2CCOCC2)nc(SCCCCCC)n1` [S6S8 D2], the “Absolute DNA transfection efficiency” value rises from 1.9% to 2.5%.
